Experimental data published in PubChem BioAssay (NCI).
Where “and” joins values, the source holds several entries; their conditions need not be identical. Identical values can stand only once.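 48-hour exposure; five concentrations; linearly interpolated endpoints. Here, GI50 denotes the concentration required for 50% inhibition of growth. Definition used: TGI = concentration required for complete inhibition of growth.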

What was measured:
Assay in all cases: growth of human tumour cells (NCI), 48 h
KM20L2 colon = test system: KM20L2 colon
HT29 colon = test system: HT29 colon
OVCAR-8 ovarian = test system: OVCAR-8 ovarian
XF 498 CNS = test system: XF 498 CNS
SK-OV-3 ovarian = test system: SK-OV-3 ovarian
786-0 renal = test system: 786-0 renal
SW-620 colon = test system: SW-620 colon
RXF 393 renal = test system: RXF 393 renal
UO-31 renal = test system: UO-31 renal
CAKI-1 renal = test system: CAKI-1 renal
DMS 273 small cell lung = test system: DMS 273 small cell lung
ACHN renal = test system: ACHN renal
SK-MEL-2 melanoma = test system: SK-MEL-2 melanoma
SK-MEL-28 melanoma = test system: SK-MEL-28 melanoma
DLD-1 colon = test system: DLD-1 colon
RPMI-8226 leukemia = test system: RPMI-8226 leukemia
NCI-H226 lung = test system: NCI-H226 lung
MALME-3M melanoma = test system: MALME-3M melanoma
UACC-257 melanoma = test system: UACC-257 melanoma
HCC-2998 colon = test system: HCC-2998 colon
M19-MEL melanoma = test system: M19-MEL melanoma
LXFL 529 NSCLC = test system: LXFL 529 NSCLC
CCRF-CEM leukemia = test system: CCRF-CEM leukemia
NCI-H522 lung = test system: NCI-H522 lung
UACC-62 melanoma = test system: UACC-62 melanoma
NCI-H460 lung = test system: NCI-H460 lung
OVCAR-4 ovarian = test system: OVCAR-4 ovarian
K-562 leukemia = test system: K-562 leukemia
DMS 114 small cell lung = test system: DMS 114 small cell lung
MOLT-4 leukemia = test system: MOLT-4 leukemia
TK-10 renal = test system: TK-10 renal
SNB-19 CNS = test system: SNB-19 CNS
HCT-116 colon = test system: HCT-116 colon
OVCAR-5 ovarian = test system: OVCAR-5 ovarian
SF-539 CNS = test system: SF-539 CNS
SN12C renal = test system: SN12C renal
A498 renal = test system: A498 renal
HOP-92 NSCLC = test system: HOP-92 NSCLC
HL-60(TB) leukemia = test system: HL-60(TB) leukemia
IGROV1 ovarian = test system: IGROV1 ovarian
U251 CNS = test system: U251 CNS
OVCAR-3 ovarian = test system: OVCAR-3 ovarian
NCI-H23 lung = test system: NCI-H23 lung
EKVX NSCLC = test system: EKVX NSCLC
SNB-78 CNS = test system: SNB-78 CNS
KM12 colon = test system: KM12 colon
HCT-15 colon = test system: HCT-15 colon
SNB-75 CNS = test system: SNB-75 CNS
A549 NSCLC = test system: A549 NSCLC
COLO 205 colon = test system: COLO 205 colon
SK-MEL-5 melanoma = test system: SK-MEL-5 melanoma
HOP-18 NSCLC = test system: HOP-18 NSCLC
SF-295 CNS = test system: SF-295 CNS
SF-268 CNS = test system: SF-268 CNS
HOP-62 NSCLC = test system: HOP-62 NSCLC
M14 melanoma = test system: M14 melanoma
SR leukemia = test system: SR leukemia

CSc1nc(-c2ccc(Cl)cc2)c(C#N)c(=O)n1C1OC(COC(C)=O)C(OC(C)=O)C(OC(C)=O)C1OC(C)=O (centres undefined)
GI50 (KM20L2 colon): 35 µM and > 100 µM | TGI (KM20L2 colon): > 100 µM | GI50 (HT29 colon): 29.3 µM and > 100 µM | TGI (HT29 colon): > 100 µM | TGI (OVCAR-8 ovarian): > 100 µM | TGI (XF 498 CNS): > 100 µM | GI50 (SK-OV-3 ovarian): 25.3 µM and > 100 µM | TGI (SK-OV-3 ovarian): 70.3 µM and > 100 µM | TGI (786-0 renal): > 100 µM | TGI (SW-620 colon): > 100 µM | GI50 (RXF 393 renal): 10.6 µM and > 100 µM | TGI (RXF 393 renal): 25.6 µM and > 100 µM | GI50 (UO-31 renal): 10.4 µM and > 100 µM | TGI (UO-31 renal): 23.5 µM and > 100 µM | TGI (CAKI-1 renal): > 100 µM | TGI (DMS 273 small cell lung): > 100 µM | GI50 (ACHN renal): 24 µM and > 100 µM | TGI (ACHN renal): > 100 µM | TGI (SK-MEL-2 melanoma): > 100 µM | GI50 (SK-MEL-28 melanoma): 27.6 µM and > 100 µM | TGI (SK-MEL-28 melanoma): > 100 µM | TGI (DLD-1 colon): > 100 µM | GI50 (RPMI-8226 leukemia): 34.6 µM and > 100 µM | TGI (RPMI-8226 leukemia): > 100 µM | TGI (NCI-H226 lung): > 100 µM | GI50 (MALME-3M melanoma): 30.7 µM and 77.8 µM | TGI (MALME-3M melanoma): > 100 µM | GI50 (UACC-257 melanoma): 14.5 µM and > 100 µM | TGI (UACC-257 melanoma): 38.8 µM and > 100 µM | TGI (HCC-2998 colon): > 100 µM | GI50 (M19-MEL melanoma): 34.3 µM and > 100 µM | TGI (M19-MEL melanoma): > 100 µM | GI50 (LXFL 529 NSCLC): 26 µM and > 100 µM | TGI (LXFL 529 NSCLC): > 100 µM | GI50 (CCRF-CEM leukemia): > 7.5 µM and 65.1 µM | TGI (CCRF-CEM leukemia): > 100 µM | GI50 (NCI-H522 lung): 12.1 µM and > 100 µM | TGI (NCI-H522 lung): 29.2 µM and > 100 µM | GI50 (UACC-62 melanoma): 30.5 µM and > 100 µM | TGI (UACC-62 melanoma): > 100 µM | GI50 (NCI-H460 lung): 27.3 µM and > 100 µM | TGI (NCI-H460 lung): > 100 µM | GI50 (OVCAR-4 ovarian): > 100 µM | TGI (OVCAR-4 ovarian): > 100 µM | TGI (K-562 leukemia): > 100 µM | GI50 (DMS 114 small cell lung): 24.6 µM and > 100 µM | TGI (DMS 114 small cell lung): > 100 µM | TGI (MOLT-4 leukemia): > 100 µM | TGI (TK-10 renal): > 100 µM | GI50 (SNB-19 CNS): 13.9 µM and > 100 µM | TGI (SNB-19 CNS): 39.4 µM and > 100 µM | GI50 (HCT-116 colon): 23.1 µM and > 100 µM | TGI (HCT-116 colon): > 100 µM | GI50 (OVCAR-5 ovarian): 31.3 µM and > 100 µM | TGI (OVCAR-5 ovarian): > 100 µM | GI50 (SF-539 CNS): 15.2 µM and > 100 µM | TGI (SF-539 CNS): 31.6 µM and > 100 µM | TGI (SN12C renal): > 100 µM | GI50 (A498 renal): 17.6 µM and > 100 µM | TGI (A498 renal): 38.9 µM and > 100 µM | GI50 (HOP-92 NSCLC): 10.4 µM and 4.43 µM | TGI (HOP-92 NSCLC): 32 µM and 82.7 µM | TGI (HL-60(TB) leukemia): > 100 µM | TGI (IGROV1 ovarian): > 100 µM | GI50 (U251 CNS): 20.6 µM and > 100 µM | TGI (U251 CNS): 71.6 µM and > 100 µM | TGI (OVCAR-3 ovarian): 33.2 µM | GI50 (NCI-H23 lung): 22.2 µM and > 100 µM | TGI (NCI-H23 lung): > 100 µM | TGI (EKVX NSCLC): > 100 µM | GI50 (SNB-78 CNS): 12.4 µM and > 100 µM | TGI (SNB-78 CNS): 39.6 µM and > 100 µM | TGI (KM12 colon): > 100 µM | TGI (HCT-15 colon): > 100 µM | GI50 (SNB-75 CNS): 14.8 µM and > 100 µM | TGI (SNB-75 CNS): 31.9 µM and > 100 µM | TGI (A549 NSCLC): > 100 µM | TGI (COLO 205 colon): > 100 µM | TGI (SK-MEL-5 melanoma): > 100 µM | TGI (HOP-18 NSCLC): > 100 µM | GI50 (SF-295 CNS): 14.8 µM and > 100 µM | TGI (SF-295 CNS): 39 µM and > 100 µM | GI50 (SF-268 CNS): 12.4 µM and > 100 µM | TGI (SF-268 CNS): 55.2 µM and > 100 µM | GI50 (HOP-62 NSCLC): 23.6 µM and > 100 µM | TGI (HOP-62 NSCLC): 57.1 µM and > 100 µM | GI50 (M14 melanoma): 34.7 µM and 88.9 µM | TGI (M14 melanoma): > 100 µM | TGI (SR leukemia): > 100 µM
